Where two headings read alike, the source gives them in different places. One block for each compound: values may come before it.
How the values were obtained:
Format in all cases: cell-based
[1] = target: T1, GATA4–NKX2-5 transcriptional synergy (Mus musculus, UniProt P42582+Q08369); assay: GATA4–NKX2-5 transcriptional synergy luciferase reporter assay (3xNKE reporter, COS-1 cells); details: for activity at 3 µM / activity at 10 µM: COS-1; for Synergy (% of control) Mean ± SD: 10 μM, COS-1 cells, 24 h
T1 construct: expressed in transfected cells; host or cells: COS-1
T1 sequence (Q08369 whole entry): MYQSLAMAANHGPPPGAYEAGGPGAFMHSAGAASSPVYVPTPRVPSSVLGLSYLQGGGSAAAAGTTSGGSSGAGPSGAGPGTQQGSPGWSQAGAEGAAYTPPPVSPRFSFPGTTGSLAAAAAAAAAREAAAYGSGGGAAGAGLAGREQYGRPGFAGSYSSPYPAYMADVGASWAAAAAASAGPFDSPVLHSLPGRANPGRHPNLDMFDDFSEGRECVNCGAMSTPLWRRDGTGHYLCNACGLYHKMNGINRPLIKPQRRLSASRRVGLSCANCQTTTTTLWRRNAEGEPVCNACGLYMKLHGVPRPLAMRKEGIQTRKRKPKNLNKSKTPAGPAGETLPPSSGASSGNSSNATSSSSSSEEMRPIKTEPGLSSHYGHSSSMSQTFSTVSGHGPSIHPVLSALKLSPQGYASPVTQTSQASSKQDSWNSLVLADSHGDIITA
T1 sequence (P42582 whole entry): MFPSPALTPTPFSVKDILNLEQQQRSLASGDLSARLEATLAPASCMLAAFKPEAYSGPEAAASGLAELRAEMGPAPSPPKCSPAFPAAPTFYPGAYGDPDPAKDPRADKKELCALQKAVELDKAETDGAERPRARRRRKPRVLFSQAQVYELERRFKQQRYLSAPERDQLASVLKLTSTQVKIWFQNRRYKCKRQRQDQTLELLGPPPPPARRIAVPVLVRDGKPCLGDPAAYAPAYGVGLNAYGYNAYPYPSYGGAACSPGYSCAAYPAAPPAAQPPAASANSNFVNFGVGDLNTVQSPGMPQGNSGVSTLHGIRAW

[2] = target: T2, GATA4 transcriptional activity (Mus musculus, UniProt Q08369); assay: GATA4 luciferase reporter assay (tandem GATA-site reporter, COS-1 cells); details: for activity at 3 µM: COS-1; for GATA4 (% of control) Mean ± SD: 10 μM, COS-1 cells, 24 h
T2 construct: expressed in transfected cells; host or cells: COS-1
T2 sequence (Q08369 whole entry): as the sequence (Q08369 whole entry) above

[3] = target: T3, NKX2-5 transcriptional activity (Mus musculus, UniProt P42582); assay: NKX2-5 luciferase reporter assay (3xNKE reporter, COS-1 cells); details: for activity at 3 µM: COS-1, read-out: NKX.3µM
T3 construct: expressed in transfected cells; host or cells: COS-1
T3 sequence (P42582 whole entry): as the sequence (P42582 whole entry) above

[4] = 3 µM, luciferase reporter activity, % of control
[5] = 3 µM, luciferase reporter activity relative to control
[6] = 10 µM, luciferase reporter activity relative to control

activity at 3 µM [1, 5]: 66.9% | activity at 3 µM [2, 5]: 128% | activity at 3 µM [3, 5]: 41.8%
Compound: CCN(CC)c1ccc(NC(=O)c2cnsc2)cc1 [Compound 47s]

Synergy.3µM [1, 5]: 45.37 | Synergy (% of control) Mean ± SD [1]: 24 ± 0.9 % of control | Synergy.10µM [1, 6]: 23.55 | GATA.3µM [2, 5]: 61.94 | GATA4 (% of control) Mean ± SD [2]: 68 ± 9.1 % of control | GATA.10µM [2, 6]: 68.28 | NKX.3µM [3, 5]: 33.64 | NKX2-5 (% of control) Mean ± SD ([3]; 10 μM, COS-1 cells, 24 h): 21 ± 0.88 % of control | NKX.10µM [3, 6]: 20.92
Compound: N-[4-(Diethylamino)phenyl]-3-methyl-5-(4-methyl-1,2,3-thiadiazol-5-yl)isoxazole-4-carboxamide [Compound 47c]

The next lines start with the compound.

Compound: CCN(CC)c1ccc(NC(=O)c2c(-c3ccccc3)noc2C)cc1 [Compound 1, N-[4-(Diethylamino)phenyl]-5-methyl-3-phenylisoxazole-4-carboxamide]
activity at 3 µM [1, 4]: 73.7% | activity at 3 µM [2, 4]: 92.1% | activity at 3 µM [3, 4]: 76%

Compound: Cc1onc(-c2ccccc2)c1C(=O)N(C1=NC(C)CS1)c1ccc(Cl)cc1 (centres unmarked) [Compound 2]
Synergy (% of control) Mean ± SD [1]: 170 % of control | activity at 3 µM [1, 4]: 130% | activity at 10 µM ([1]; 10 µM, luciferase reporter activity, % of control): 166% | activity at 3 µM [2, 4]: 145% | activity at 3 µM [3, 4]: 102%

Compound: Cc1onc(-c2ccccc2)c1COc1ccc(C(=O)OCCC#N)cc1 [Compound 35a, 2-Cyanoethyl 4-[(5-Methyl-3-phenylisoxazol-4-yl)methoxy]benzoate]
activity at 3 µM [1, 5]: 27.5% | activity at 3 µM [2, 5]: 46.9% | activity at 3 µM [3, 5]: 39.5%

Compound: CCC(=O)N(Cc1ccc(N(CC)CC)cc1)c1c(-c2ccccc2)noc1C [Compound 58]
activity at 10 µM [1, 6]: 22.3% | activity at 3 µM [2, 5]: 70.3% | activity at 3 µM [3, 5]: 73.7%

Compound: COc1ccc(-c2cc(NC(=O)c3ccc(C(C)(C)C)cc3)n[nH]2)cc1 [Compound 72]
effect on GATA4–NKX2-5 transcriptional synergy (in words) [1]: inhibition potency | activity at 3 µM [1, 5]: 66% | activity at 10 µM [1, 6]: 49.5% | GATA4 (% of control) Mean ± SD [2]: 40 % of control | activity at 3 µM [2, 5]: 70.5% | activity at 3 µM [3, 5]: 74.8%

— article PMC7076710, “Synthesis, Identification, and Structure–Activity Relationship Analysis of GATA4 and NKX2-5 Protein–Protein Interaction Modulators” (Journal of Medicinal Chemistry, 2019)
